Patent US20090191253A2 (Creabilis Therapeutics S.P.A., priority 2005, published 2009)

What was measured:
INSR = molecular target: T1, INSR (Homo sapiens, UniProt P06213); assay: Kinase inhibition profiling INSR (ELISA); format: biochemical
T1 construct: Kinase domain (KD) of human INSR [1005-1310 amino; His (N, cleaved yes); made in house; host or cells: baculovirus expression system
Method: (§1) Each test compound was weighed and dissolved in DMSO to make 1 mM stock solution. The stock solution was diluted with DMSO to achieve 20 μM. The compound solution was diluted with the assay buffer to achieve 0.8 μM.

Erk2 = molecular target: T2, Erk2 (Homo sapiens, UniProt P28482); assay: Kinase inhibition profiling Erk2 (IMAP); format: biochemical
T2 construct: Human Erk2 containing 360 amino acids was expressed; His (N); made in house; host or cells: E. coli
T2 sequence (P28482 whole entry): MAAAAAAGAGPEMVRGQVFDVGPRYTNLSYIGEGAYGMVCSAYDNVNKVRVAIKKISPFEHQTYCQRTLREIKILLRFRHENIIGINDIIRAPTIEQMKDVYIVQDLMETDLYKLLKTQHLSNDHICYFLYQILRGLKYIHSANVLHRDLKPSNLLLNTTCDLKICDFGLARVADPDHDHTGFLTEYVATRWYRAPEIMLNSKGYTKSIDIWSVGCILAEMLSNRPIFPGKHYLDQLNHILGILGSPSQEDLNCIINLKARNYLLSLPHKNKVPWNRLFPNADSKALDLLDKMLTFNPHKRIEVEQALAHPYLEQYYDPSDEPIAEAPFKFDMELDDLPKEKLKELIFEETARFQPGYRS
Method: as §1

[1] = system: bovine aorta smooth muscle cells (BASMC); assay: Proliferation assay, HMGB1-induced BASMC proliferation; format: cell-based; conditions: K-252a 3, 10, 30, 100 or 300 nM; HMGB1 25 ng/ml (1 nM); days 1-4
Method: Proliferation assays were performed using an already described and validated method (1). BASMC cells (bovine aorta smooth muscle cells) were seeded in 6-well plates (10^5 cells/well) and grown in RPMI medium supplemented with 20% FCS. After 24 h, the medium was replaced with serum-free RPMI and cell were then starved for 16 hours to synchronize the cell population. […] Each experimental point represents the mean+/−SD of triplicate determinations. The experiment was repeated three times. BASMC cell proliferation was determined by detaching the cells from the plate at the indicated times (on days 1, 2, 3, and 4 of culturing) and counting the Trypan-blue excluding cells under the microscope.

AXL = molecular target: T3, AXL (Homo sapiens, UniProt P30530); assay: Kinase inhibition profiling AXL (ELISA); format: biochemical
T3 construct: made in house; host or cells: baculovirus expression system
Method: (§2) In particular, the target kinases were Tyrosine kinases and Serine/Threonine kinases.
as §1

BRK = molecular target: T4, BRK (Homo sapiens, UniProt Q13882); assay: Kinase inhibition profiling BRK (ELISA); format: biochemical
T4 construct: made in house; host or cells: baculovirus expression system
Method: as §2, §1

CHK1 = molecular target: T5, CHK1 (Homo sapiens, UniProt O14757); assay: Kinase inhibition profiling CHK1 (IMAP); format: biochemical
T5 construct: His (N); made in house; host or cells: baculovirus expression system
T5 sequence (O14757 whole entry): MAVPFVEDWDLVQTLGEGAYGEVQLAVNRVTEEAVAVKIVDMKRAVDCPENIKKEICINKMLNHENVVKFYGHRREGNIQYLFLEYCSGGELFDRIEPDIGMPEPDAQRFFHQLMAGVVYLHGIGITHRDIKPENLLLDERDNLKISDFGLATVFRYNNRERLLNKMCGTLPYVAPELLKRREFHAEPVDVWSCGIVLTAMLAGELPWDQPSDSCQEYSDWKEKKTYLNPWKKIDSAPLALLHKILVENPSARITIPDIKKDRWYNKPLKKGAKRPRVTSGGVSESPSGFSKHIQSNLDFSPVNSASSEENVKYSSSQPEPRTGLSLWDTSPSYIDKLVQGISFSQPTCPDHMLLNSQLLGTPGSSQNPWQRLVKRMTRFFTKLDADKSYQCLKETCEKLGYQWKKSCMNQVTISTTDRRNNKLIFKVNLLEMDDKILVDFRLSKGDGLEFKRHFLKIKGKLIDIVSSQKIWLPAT
Method: as §1

EphB2 = molecular target: T6, EphB2 (Homo sapiens, UniProt P29323); assay: Kinase inhibition profiling EphB2 (ELISA); format: biochemical
T6 construct: Cytoplasmic domain of human EphB2 [581-987 amino; made in house; host or cells: baculovirus expression system
T6 sequence (P29323 581-987 isoform P29323-3): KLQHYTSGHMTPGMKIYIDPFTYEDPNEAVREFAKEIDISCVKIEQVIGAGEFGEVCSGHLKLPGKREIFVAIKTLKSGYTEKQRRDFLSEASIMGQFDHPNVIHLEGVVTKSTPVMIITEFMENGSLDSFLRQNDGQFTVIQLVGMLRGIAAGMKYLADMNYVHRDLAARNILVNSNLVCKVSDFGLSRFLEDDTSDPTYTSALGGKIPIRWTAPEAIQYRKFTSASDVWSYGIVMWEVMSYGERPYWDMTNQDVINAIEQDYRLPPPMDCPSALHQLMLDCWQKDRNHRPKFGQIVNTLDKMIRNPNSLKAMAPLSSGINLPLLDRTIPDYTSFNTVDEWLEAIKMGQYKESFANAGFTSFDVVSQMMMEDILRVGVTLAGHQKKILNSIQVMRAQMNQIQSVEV
Method: as §1

FAK = molecular target: T7, FAK (Homo sapiens, UniProt Q05397); assay: Kinase inhibition profiling FAK (ELISA); format: biochemical
T7 construct: made in house; host or cells: baculovirus expression system
Method: as §1

LYNb = molecular target: T8, LYNb (Homo sapiens, UniProt P07948); assay: Kinase inhibition profiling LYNb (ELISA); format: biochemical
T8 construct: made in house; host or cells: baculovirus expression system
T8 sequence (P07948 1-491 isoform P07948-2): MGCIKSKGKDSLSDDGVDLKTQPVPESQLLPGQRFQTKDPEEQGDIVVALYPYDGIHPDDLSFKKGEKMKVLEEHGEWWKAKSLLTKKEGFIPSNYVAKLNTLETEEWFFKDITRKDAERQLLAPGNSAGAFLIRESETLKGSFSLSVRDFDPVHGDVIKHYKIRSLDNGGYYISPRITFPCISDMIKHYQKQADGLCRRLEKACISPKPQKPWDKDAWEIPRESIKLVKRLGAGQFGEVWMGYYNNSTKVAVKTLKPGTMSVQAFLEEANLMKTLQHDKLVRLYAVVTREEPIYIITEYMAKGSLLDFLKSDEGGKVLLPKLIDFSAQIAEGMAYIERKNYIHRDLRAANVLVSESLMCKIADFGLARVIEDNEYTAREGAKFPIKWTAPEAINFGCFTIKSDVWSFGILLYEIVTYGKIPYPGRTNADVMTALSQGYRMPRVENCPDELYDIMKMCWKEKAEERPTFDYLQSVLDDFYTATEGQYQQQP
Method: as §1

SRC = molecular target: T9, SRC (Homo sapiens, UniProt P12931); assay: Kinase inhibition profiling SRC (ELISA); format: biochemical
T9 construct: made in house; host or cells: baculovirus expression system
T9 sequence (P12931 whole entry): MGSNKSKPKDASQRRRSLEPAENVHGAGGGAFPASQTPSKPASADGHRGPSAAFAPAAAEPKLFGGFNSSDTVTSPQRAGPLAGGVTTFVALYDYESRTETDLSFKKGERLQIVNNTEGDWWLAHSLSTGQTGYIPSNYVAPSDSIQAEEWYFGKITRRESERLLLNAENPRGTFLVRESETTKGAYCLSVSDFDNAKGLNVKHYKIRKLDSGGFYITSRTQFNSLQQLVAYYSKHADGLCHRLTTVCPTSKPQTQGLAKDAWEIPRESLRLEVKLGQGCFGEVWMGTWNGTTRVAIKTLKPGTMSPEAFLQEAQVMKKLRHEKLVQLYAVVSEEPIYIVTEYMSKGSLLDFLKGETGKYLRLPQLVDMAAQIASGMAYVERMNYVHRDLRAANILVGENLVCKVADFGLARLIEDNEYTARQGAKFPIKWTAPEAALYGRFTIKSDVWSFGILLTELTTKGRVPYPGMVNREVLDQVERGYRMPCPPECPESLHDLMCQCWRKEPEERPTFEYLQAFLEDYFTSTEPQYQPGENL
Method: as §1

MAPKAPK2 = molecular target: T10, MAPKAPK2 (Homo sapiens, UniProt P49137); assay: Kinase inhibition profiling MAPKAPK2 (IMAP); format: biochemical
T10 construct: His (N); made in house; host or cells: baculovirus expression system
Method: as §1

PKCα = molecular target: T11, PKCα (Homo sapiens, UniProt P17252); assay: Kinase inhibition profiling PKCα (IMAP); format: biochemical
T11 construct: made in house; host or cells: baculovirus expression system
Method: as §1

HER2 = molecular target: T12, HER2 (Homo sapiens, UniProt P04626); assay: Kinase inhibition profiling HER2 (ELISA); format: biochemical; note: ATP 5 µM
T12 construct: Cytoplasmic domain of human HER2 [676-1255 amino; made in house; host or cells: baculovirus expression system
Method: as §1

[2] = system: bovine aorta smooth muscle cells (BASMC); assay: Chemotaxis assay, HMGB1-induced migration (modified Boyden chambers); format: cell-based; conditions: K-252a 3, 10, 30, 100 nM; HMGB-1 25 ng/ml; overnight migration
Method: Chemotaxis assays were performed using a well known and validated protocol (1). Modified Boyden chambers were used with filters having 5-8 μm pore size and treated with collagen I (100 μg/ml in 0.5 M acetic acid) and fibronectin (10 μg/ml, Roche). BASMC (bovine aorta smooth muscle cells) were cultured in serum-free DMEM and a sample of 20,000-40,000 cells was added to the upper well of a Boyden chamber. […] Overnight cell migration was allowed at 37+/−0.5° C., then cells were scraped off and filters were fixed in methanol and stained in a solution of 10% crystal violet in 20% methanol. All experiments were performed at least twice in triplicate. […] Random cell migration, i.e. migration in the absence of chemoattractant, was given the arbitrary value of 100%. Statistical analysis was performed using Student's t test for pairwise comparisons of treatment, or an ANOVA model for the evaluation of treatments with increasing concentrations of a reagent.

AurA = molecular target: T13, AurA (Homo sapiens, UniProt O14965); assay: Kinase inhibition profiling AurA (IMAP); format: biochemical
T13 construct: GST (N); made in house; host or cells: baculovirus expression system
Method: as §1

IGF1R = molecular target: T14, IGF1R (Homo sapiens, UniProt P08069); assay: Kinase inhibition profiling IGF1R (ELISA); format: biochemical
T14 construct: Cytoplasmic domain of human IGF1R [959-1367 amino; made in house; host or cells: baculovirus expression system
Method: as §1

JNK2 = molecular target: T15, JNK2 (Homo sapiens, UniProt P45984); assay: Kinase inhibition profiling JNK2 (ELISA); format: biochemical; note: ATP 5 µM
T15 construct: Human JNK2 containing 424 amino acids was expressed; His (C); made in house; host or cells: E. coli
T15 sequence (P45984 whole entry): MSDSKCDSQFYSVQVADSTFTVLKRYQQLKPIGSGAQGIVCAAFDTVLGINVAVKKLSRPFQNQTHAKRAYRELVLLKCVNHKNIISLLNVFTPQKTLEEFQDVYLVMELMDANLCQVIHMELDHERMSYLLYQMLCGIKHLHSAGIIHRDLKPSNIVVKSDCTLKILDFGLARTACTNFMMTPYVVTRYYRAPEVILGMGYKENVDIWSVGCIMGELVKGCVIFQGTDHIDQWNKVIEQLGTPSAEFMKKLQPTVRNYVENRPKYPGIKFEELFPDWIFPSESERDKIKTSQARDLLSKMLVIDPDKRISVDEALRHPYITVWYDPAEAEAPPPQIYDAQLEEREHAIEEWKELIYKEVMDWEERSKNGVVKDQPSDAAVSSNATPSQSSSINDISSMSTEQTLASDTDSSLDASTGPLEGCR
Method: as §1

FLT1 = molecular target: T16, FLT1 (Homo sapiens, UniProt P17948); assay: Kinase inhibition profiling FLT1 (ELISA); format: biochemical; note: ATP 20 µM
T16 construct: Cytoplasmic domain of human FLT1 [781-1338 amino; made in house; host or cells: baculovirus expression system
T16 sequence (P17948 781-1338): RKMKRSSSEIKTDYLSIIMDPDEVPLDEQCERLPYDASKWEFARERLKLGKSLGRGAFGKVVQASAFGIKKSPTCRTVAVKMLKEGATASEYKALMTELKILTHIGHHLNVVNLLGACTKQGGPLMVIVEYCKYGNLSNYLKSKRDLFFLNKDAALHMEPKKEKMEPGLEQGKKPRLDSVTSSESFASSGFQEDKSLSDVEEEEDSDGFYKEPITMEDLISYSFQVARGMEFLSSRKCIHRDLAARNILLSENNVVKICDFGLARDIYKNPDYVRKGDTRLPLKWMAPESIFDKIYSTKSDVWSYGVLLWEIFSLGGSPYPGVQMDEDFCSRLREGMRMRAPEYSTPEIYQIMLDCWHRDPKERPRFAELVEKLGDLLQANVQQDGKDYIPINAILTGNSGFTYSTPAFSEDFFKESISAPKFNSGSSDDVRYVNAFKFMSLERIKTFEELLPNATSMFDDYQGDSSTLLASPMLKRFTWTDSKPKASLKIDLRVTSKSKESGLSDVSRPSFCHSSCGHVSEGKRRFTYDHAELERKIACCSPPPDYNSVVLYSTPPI
Method: as §2, §1

FMS(CSFR) = molecular target: T17, FMS(CSFR) (Homo sapiens, UniProt P07333); assay: Kinase inhibition profiling FMS(CSFR) (ELISA); format: biochemical
T17 construct: Cytoplasmic domain of human FMS [538-972 amino; made in house; host or cells: baculovirus expression system
Method: as §1

FYN = molecular target: T18, FYN (Homo sapiens, UniProt P06241); assay: Kinase inhibition profiling FYN (ELISA); format: biochemical; note: ATP 20 µM
T18 construct: made in house; host or cells: baculovirus expression system
T18 sequence (P06241 whole entry): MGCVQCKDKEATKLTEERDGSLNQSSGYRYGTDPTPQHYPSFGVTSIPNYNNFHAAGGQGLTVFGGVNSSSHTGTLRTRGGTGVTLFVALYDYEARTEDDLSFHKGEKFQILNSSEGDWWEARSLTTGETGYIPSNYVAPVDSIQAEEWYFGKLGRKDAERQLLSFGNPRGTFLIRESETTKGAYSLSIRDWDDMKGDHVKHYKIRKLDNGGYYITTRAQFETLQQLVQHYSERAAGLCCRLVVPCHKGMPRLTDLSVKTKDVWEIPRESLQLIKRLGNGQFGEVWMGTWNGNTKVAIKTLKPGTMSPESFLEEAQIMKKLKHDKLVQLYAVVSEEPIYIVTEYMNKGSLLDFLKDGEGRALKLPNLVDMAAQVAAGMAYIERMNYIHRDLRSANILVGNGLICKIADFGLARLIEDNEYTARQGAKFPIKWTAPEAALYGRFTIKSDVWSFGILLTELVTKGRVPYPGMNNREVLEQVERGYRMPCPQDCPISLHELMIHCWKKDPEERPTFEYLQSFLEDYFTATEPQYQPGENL
Method: as §2, §1

TrkC = TrkC (Homo sapiens, UniProt Q16288); assay: Kinase inhibition profiling TrkC (ELISA)
Method: as §2, §1

FGFR1 = molecular target: T19, FGFR1 (Homo sapiens, UniProt P11362); assay: Kinase inhibition profiling FGFR1 (ELISA); format: biochemical
T19 construct: Cytoplasmic domain of human FGFR1 [396-820 amino; made in house; host or cells: baculovirus expression system
T19 sequence (P11362 398-822): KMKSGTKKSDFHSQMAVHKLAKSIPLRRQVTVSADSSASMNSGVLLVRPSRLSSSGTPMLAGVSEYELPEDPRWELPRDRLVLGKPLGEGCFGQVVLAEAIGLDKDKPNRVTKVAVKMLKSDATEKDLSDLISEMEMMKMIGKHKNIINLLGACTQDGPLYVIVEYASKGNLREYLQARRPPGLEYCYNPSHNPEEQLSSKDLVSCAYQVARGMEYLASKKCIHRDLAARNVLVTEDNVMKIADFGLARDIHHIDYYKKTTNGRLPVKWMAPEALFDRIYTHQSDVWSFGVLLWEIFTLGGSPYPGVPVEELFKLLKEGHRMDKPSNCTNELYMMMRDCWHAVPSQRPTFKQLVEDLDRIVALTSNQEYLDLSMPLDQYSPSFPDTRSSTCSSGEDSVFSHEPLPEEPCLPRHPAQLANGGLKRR
Method: as §1

PDGFRβ = molecular target: T20, PDGFRβ (Homo sapiens, UniProt P09619); assay: Kinase inhibition profiling PDGFRβ (ELISA); format: biochemical
T20 construct: Cytoplasmic domain of human PDGFRβ [557-1106 amino; made in house; host or cells: baculovirus expression system
Method: as §1

JAK2 = molecular target: T21, JAK2 (Homo sapiens, UniProt O60674); assay: Kinase inhibition profiling JAK2 (ELISA); format: biochemical
T21 construct: Kinase domain (KD) of human JAK2 [826-1132 amino; made in house; host or cells: baculovirus expression system
Method: as §1

COC(=O)[C@]1(O)CC2O[C@@]1(C)n1c3ccccc3c3c4c(c5c6ccccc6n2c5c31)C(=O)NC4 [K-252a]
inhibition at 0.2 µM (INSR): 38%
inhibition at 0.2 µM (Erk2): 14.2%
HMGB1-induced BASMC cell proliferation [1]: antagonizes BASMC cell proliferation at all the concentrations tested in a time-dependent fashion and in a nM range
inhibition at 0.2 µM (AXL): 51.5%
inhibition at 0.2 µM (BRK): 35.8%
inhibition at 0.2 µM (CHK1): 92.8%
inhibition at 0.2 µM (EphB2): 0.4%
inhibition at 0.2 µM (FAK): 53.5%
inhibition at 0.2 µM (LYNb): 51.2%
inhibition at 0.2 µM (SRC): 20.6%
inhibition at 0.2 µM (MAPKAPK2): 44.3%
inhibition at 0.2 µM (PKCα): 64.4%
inhibition at 0.2 µM (HER2): 7.7%
HMGB1-induced BASMC cell migration [2]: actively and concentration-dependently (in a nanomolar range) antagonizes HMGB1-induced BASMC cell migration
inhibition at 0.2 µM (AurA): 91.9%
inhibition at 0.2 µM (IGF1R): 40.6%
inhibition at 0.2 µM (JNK2): 91.4%
inhibition at 0.2 µM (FLT1): 73.9%
inhibition at 0.2 µM (FMS(CSFR)): 55.7%
inhibition at 0.2 µM (FYN): 67.2%
inhibition at 0.2 µM (TrkC): 94.4%
inhibition at 0.2 µM (FGFR1): 57.9%
inhibition at 0.2 µM (PDGFRβ): 98.1%
inhibition at 0.2 µM (JAK2): 99.5%
